The values that follow come from EP0341104B1, “Substituted flavonoid compounds, their salts, their manufacture and medicines containing these materials” (MERCK PATENT GmbH, priority 1988, dated 1989).

The test system of data set [1] is tumored cells of the type YAC-1. The data set is described as follows: stimulation of the activity of killer cells (splenic cells of treated mice, chromium 51 release). It is filed as in vivo, Mice BALB/C. The following applies: 200 mg/kg intravenously; spleens taken 24 hours after administration; 4 hours incubation with 1 x 10⁴ YAC-1 cells; HBSS controls no measurable activity. The method, then: The determination of the activity of killer cells was made in accordance with the following. Mice BALB/C were treated intraveneously, either with 0.25 ml of HBSS or with 200 mg/kg of a compound of formula (IV). Twenty four hours after administration of the compound, the spleens of the animals were reduced to a state of suspension. Debris and cellular wastes are eliminated by sedimentation and the red corpuscles are lysed with distilled water. The cellular suspension obtained was then filtered over sterile gauze and washed twice with HBSS.
Different quantities of splenic cells are incubated with 1 x 10⁴ tumored cells of the type YAC-1 stained with chromium 51. The length of incubation was 4 hours at 37°C in a RPMI 1640-type medium supplemented with 5% of FBS, pencillin (100 U/ml) streptomycin (100 µg/ml), L-glutamine (20 mM), sodium pyruvate (1 mM), and nonessential amino acids (0.1 mM) in a buffered medium. The floating bodies are removed and a count effectuated.
The results are expressed in lytic units (UL₁₀): where UL₁₀ is the quantity necessary to effectuate lysis of 1 x 10⁴ target cells. For example, it was discovered that the compound of formula 19, provided 80 UL. The compound of formula 25 provided 60 UL. The compound of formula 42 provided 110 UL.

A further data set has as its system interferon (IFN). It is filed as in vivo, Mice BALB/C. As to conditions: 200 mg/kg intravenously; unit = quantity of IFN in 1 ml of sample reducing viral lysis by 50%; HBSS controls no induction.
Another data set can be described thus: in vivo. The following applies: mouse, 400 mg/kg.
The next data set concerns murine renal cancer. As to conditions: Wiltrout et al, J. Immunol. 1988; cited from earlier work.
The subject of data set [2] is natural killer cell activity. The following applies: Wiltrout et al, J. Immunol. 1988; cited from earlier work.
In data set [3] the test system is ristocetin-induced platelet agglutination. The following applies: Rubin et al, Lancet 1987; cited from earlier work.
The conditions of data set [4]: after 20 days.

In the case of `O=C(O)Cc1cccc2c(=O)cc(-c3ccc([N+](=O)[O-])cc3)oc12` [formula 25, (NITRO-4-PHENYL)-2-OXO-4-4H-(1)-BENZOPYRAN-8-ACETIC ACID], the “activity of killer cells in lytic units (UL₁₀)” value (“activity of killer cells” below) in data set [1] was determined as 60 UL. The Interferon activity with interferon (IFN) was 1000 units of IFN.
As to `O=C(O)Cc1ccc2c(=O)cc(-c3ccccc3)oc2c1` [formula 29, OXO-4-PHENYL-2-4H-(1) BENZOPYRAN-7-ACETIC ACID], the mortality – broadly, the percentage killed – at 480 h in the data set “in vivo” stood at 10%.
Compound `O=C(O)Cc1cccc2c(=O)cc(-c3ccccc3)oc12` [flavone-8-acetic acid] gave a mortality at 480 h in the data set “in vivo” of 100%. Further, in the data set with murine renal cancer, the “synergy with interleukin-2 (IL-2) for treatment of murine renal cancer” value is on record as “synergizes with interleukin-2 (IL-2)”. In data set [2], the “systemic natural killer cell activity” value is “augments”. The ristocetin-induced platelet agglutination result in data set [3] is on record as “inhibits”.
For the compound `Nc1nc(-c2cccc3c(=O)cc(-c4ccccc4)oc23)cs1` [formula 58, (AMINO-2-THIAZOL-4-YL)-8-PHENYL-2-4H-[1] BENZOPYRANONE-4], the mortality rate entry in data set [4] was “no deaths”.
On to `O=C(O)c1cccc2ccc3c(=O)cc(-c4ccccc4)oc3c12` [formula 67, OXO-4-PHENYL-2-4H-NAPHTO[1,2-b]PYRANONE-4], for which, in the data set with interferon (IFN), the Interferon activity is recorded as 1000 units of IFN.
For `O=C(O)Cc1cccc2c(=O)cc(-c3ccc(-c4ccccc4)cc3)oc12` [formula 19, PHENYL-4-PHENYL)2-OXO-4-4H-(1)-BENZOPYRAN-8-ACETIC ACID], the “activity of killer cells” value in data set [1] is recorded as 80 UL. Also, the Interferon activity in the data set on interferon (IFN) is 1000 units of IFN.
For the compound `C=C(C(=O)O)c1cccc2c(=O)cc(-c3ccccc3)oc12` [formula 42, (PHENYL-2-OXO-4-4H-(1) BENZOPYRAN-8-YL)-2-ACRYLIC ACID], in data set [1], the “activity of killer cells” value is 110 UL.
